Test results reported in US20250206732A1, “COMPOUNDS AND METHODS FOR THE TARGETED DEGRADATION OF KRAS” (Arvinas Operations, Inc., priority 2022, published 2025).

Experiments:
AsPC-1 HiBiT-KRASG12D = molecular target: T1, AsPC-1 HiBiT-KRASG12D (Homo sapiens, UniProt P01116, G12D); experiment: HiBiT degradation assay (G12D), AsPC-1 HiBiT-KRASG12D cells; type: cell-based; conditions: 24 hours treatment; for Dmax: ASPC1, AsPC-1 HiBiT-KRASG12D cells, maximum degradation observed; for DC50: AsPC-1 HiBiT-KRASG12D cells, HiBiT luminescence
T1 construct: insert the HiBiT tag onto the N-terminus of one or more of the endogenous KRAS alleles; endogenous in cells; host or cells: AsPC-1 (ATCC CRL-1682), CRISPR-Cas9 knock-in clone, one tagged allele
T1 sequence (P01116 1-188 isoform P01116-2 G12D): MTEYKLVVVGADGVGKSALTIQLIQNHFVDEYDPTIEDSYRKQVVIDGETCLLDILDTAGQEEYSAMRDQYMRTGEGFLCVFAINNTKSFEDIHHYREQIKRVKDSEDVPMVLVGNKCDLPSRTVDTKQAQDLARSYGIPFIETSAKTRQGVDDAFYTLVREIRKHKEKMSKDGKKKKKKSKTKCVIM
In short: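 In this degradation format, an engineered AsPC-1 clone with HiBiT fused to the KRAS N-terminus is exposed to compounds for 24 hours, after which remaining tagged protein is quantified by lytic HiBiT luminescence.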

SW1573 HiBiT-KRASG12C = molecular target: T2, SW1573 HiBiT-KRASG12C (Homo sapiens, UniProt P01116, G12C); experiment: HiBiT degradation assay (G12C), SW1573 HiBiT-KRASG12C cells; type: cell-based; conditions: 24 hours treatment; for DC50: HiBiT luminescence;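 for DC50: Letter grades: C is 1000 to 3000 nM and D is above 3000 nM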
T2 construct: expressed in transfected cells
T2 sequence (P01116 1-188 isoform P01116-2 G12C): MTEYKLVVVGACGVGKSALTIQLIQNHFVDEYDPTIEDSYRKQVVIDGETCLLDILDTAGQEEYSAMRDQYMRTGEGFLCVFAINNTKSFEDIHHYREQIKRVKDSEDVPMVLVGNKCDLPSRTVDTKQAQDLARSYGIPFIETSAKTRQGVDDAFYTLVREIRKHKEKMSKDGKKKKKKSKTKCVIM
Experimental: Reagents. SW1573 (CRL-2170), AsPC-1 (CRL-1682), and SW620 (CCL-227) cells were purchased from ATCC. SW1573 cells are homozygous for the G12C mutation in KRAS, AsPC-1 cells are homozygous for the G12D mutation, and SW620 cells are homozygous for the G12V mutation. SW1573 cells were cultured in DMEM+F12+Glutamax (+Sodium Bicarbonate, +sodium pyruvate, ThermoFisher scientific, #10565) supplemented with 10% FBS (ThermoFisher scientific, #2060357) and 1% Antibiotic-Antimycotic (ThermoFisher scientific, #15240096). AsPC-1 cells were cultured in GIBCO RPMI-1640 (ThermoFisher scientific, catalog #61870-036 with Glutamax, No HEPES, No Na Pyruvate) supplemented with 10% FBS (ThermoFisher scientific, catalog #2060357) and 1× Penicillin-Streptomycin (ThermoFisher scientific, catalog #15140122, 10000 U/ml, 100×). SW620 cells were cultured in DMEM Glutamax (ThermoFisher scientific, catalog #10566016) supplemented with 10% FBS (ThermoFisher scientific, catalog #2060357) and 1× Penicillin-Streptomycin (ThermoFisher scientific, catalog #15140122, 10000 U/ml, 100×). For degradation assays, 384 well plates were used. Alamar blue was purchased from ThermoFisher scientific (A50101) and used according to manufacturer instructions. The Nano-Glo® HiBiT Lytic Detection System and Nano-Glo® HiBiT Blotting System were purchased from Promega (#N3050 and #N2410) and used according to manufacturer instructions.
HiBiT-tagged cell line generation. To create the SW1573 HiBiT-KRASG12C cell line, the nucleotide sequence encoding the 11 amino acid HiBiT tag from Promegal was appended to the N-terminus of the KRASG12C coding sequence. This synthesized DNA was cloned into a modified pcDNA3.1 vector under the control of the thymidine kinase (TK) promoter. This HiBiT-KRASG12C expressing plasmid was transfected into parental SW1573 cells and colonies were selected using 400 μg/mL zeocin. The resulting clonal lines were screened for expression of HiBiT-KRASG12C protein using Nano-Glo® HiBiT Blotting System. A luminescent band of the correct size for HiBiT-KRASG12C was detected in several clones. Clone E6 was selected for further studies.
HiBiT degradation assays (G12C and G12D). Either SW1573 HiBiT-KRasG12C or AsPC-1 HiBiT-KRasG12D cells were plated at 9000 or 15,000 cells/well in a 384 well plate (Corning #3770). Compounds of the present disclosure and positive controls were diluted in the appropriate cell media and applied to the plated cells resulting in a final concentration titration of 10 μM to 508 pM in 0.5% DMSO. Gambogic acid was used as a positive control for cytotoxicity and titrated from 10 μM to 78 nM. All assays were performed in triplicate. Cells were treated with compounds for 24 hours at 37° C. in an incubator containing 5% CO2. Following treatment, alamar blue was used to determine if any compounds led to a loss in cell viability after 24 hours. The 10× alamar blue reagent was added to a final concentration of 1× as recommended by the manufacturer and cells were returned to the incubator for 4 hours. Plates were then allowed to equilibrate to room temperature and fluorescence was measured using a Perkin-Elmer EnVision. After completion of the fluorescence read, the liquid from each well was removed and the cells were washed with PBS. The Nano-Glo® HiBiT detection reagent was prepared according to the manufacturer's instructions and added to each well after the PBS wash was removed. Following incubation at room temperature for 45 minutes, the luminescence was read using the ultra-sensitive luminescence aperture on the Envision instrument.
Data analysis. Fluorescence values from the alamar blue treatment were normalized to the DMSO-only control for each compound titration. […]

Row | SMILES | Dmax (AsPC-1 HiBiT-KRASG12D) | DC50 (AsPC-1 HiBiT-KRASG12D) | DC50 (SW1573 HiBiT-KRASG12C) | Dmax (SW1573 HiBiT-KRASG12C; maximum degradation observed)
1 | C#Cc1c(F)ccc2cc(O)cc(-c3ncc4c(N5CC6CCC(C5)N6)nc(OCCN5CCC(COc6cc([C@H](C(=O)N7C[C@H](O)C[C@H]7C(=O)N[C@@H](C)c7ccc(-c8scnc8C)cc7)C(C)C)on6)CC5)nc4c3F)c12 [Compound 39, (2S,4R)-1-[(2R)-2-{3-[(1-{2-[(4-{3,8-diazabicyclo[3.2.1]octan-3-yl}-7-(8-ethynyl-7-fluoro-3-hydroxynaphthalen-1-yl)-8-fluoropyrido[4,3-d]pyrimidin-2-yl)oxy]ethyl}piperidin-4-yl)methoxy]-1,2-oxazol-5-yl}-3-methylbutanoyl]-4-hydroxy-N-[(1S)-1-[4-(4-methyl-1,3-thiazol-5-yl)phenyl]ethyl]pyrrolidine-2-carboxamide] | 80 to 100% | < 600 nM | 1000 to 3000 nM | 20 to 60%
2 | CCc1cccc2cc(O)cc(-c3ncc4c(N5CC6CCC(C5)N6)nc(OC[C@@]56CCCN5[C@H](COC(=O)N5CCN(c7cc([C@@H](C(=O)N8C[C@H](O)C[C@H]8C(=O)N[C@@H](C)c8ccc(-c9scnc9C)cc8)C(C)C)on7)CC5)CC6)nc4c3F)c12 [Compound 4] | 20 to 60% | < 600 nM | > 3000 nM | 
3 | CCc1cccc2cc(O)cc(-c3ncc4c(N5CCCCCC5)nc(OC[C@@]56CCCN5[C@H](COC(=O)N5CCN(c7cc([C@@H](C(=O)N8C[C@H](O)C[C@H]8C(=O)N[C@@H](C)c8ccc(-c9scnc9C)cc8)C(C)C)on7)CC5)CC6)nc4c3F)c12 [Compound 44, [(3S,7aS)-7a-({[4-(azepan-1-yl)-7-(8-ethyl-3-hydroxynaphthalen-1-yl)-8-fluoropyrido[4,3-d]pyrimidin-2-yl]oxy}methyl)-hexahydro-1H-pyrrolizin-3-yl]methyl 4-{5-[(2S)-1-[(2S,4R)-4-hydroxy-2-{[(1S)-1-[4-(4-methyl-1,3-thiazol-5-yl)phenyl]ethyl]carbamoyl}pyrrolidin-1-yl]-3-methyl-1-oxobutan-2-yl]-1,2-oxazol-3-yl}piperazine-1-carboxylate] | < 20% | < 600 nM | > 3000 nM | 
4 | CCc1cccc2cc(O)cc(-c3ncc4c(N5CC6CCC(C5)N6)nc(OCCN5CCC6(CC5)CN(c5cc([C@H](C(=O)N7C[C@H](O)C[C@H]7C(=O)N[C@@H](C)c7ccc(-c8scnc8C)cc7)C(C)C)on5)C6)nc4c3F)c12 [Compound 16, (2S,4R)-1-[(2R)-2-[3-[7-[2-[4-(3,8-diazabicyclo[3.2.1]octan-3-yl)-7-(8-ethyl-3-hydroxy-1-naphthyl)-8-fluoro-pyrido[4,3-d]pyrimidin-2-yl]oxyethyl]-2,7-diazaspiro[3.5]nonan-2-yl]isoxazol-5-yl]-3-methyl-butanoyl]-4-hydroxy-N-[(1S)-1-[4-(4-methylthiazol-5-yl)phenyl]ethyl]pyrrolidine-2-carboxamide] | 80 to 100% | < 600 nM | > 3000 nM | 
5 | C#Cc1cccc2cc(O)cc(-c3ncc4c(N5CC6CCC(C5)N6)nc(OCCN5CCC6(CC5)CN(c5cc([C@H](C(=O)N7C[C@H](O)C[C@H]7C(=O)N[C@@H](C)c7ccc(-c8scnc8C)cc7)C(C)C)on5)C6)nc4c3F)c12 [Compound 36, (2S,4R)-1-[(2R)-2-[3-(7-{2-[(4-{3,8-diazabicyclo[3.2.1]octan-3-yl}-7-(8-ethynyl-3-hydroxynaphthalen-1-yl)-8-fluoropyrido[4,3-d]pyrimidin-2-yl)oxy]ethyl}-2,7-diazaspiro[3.5]nonan-2-yl)-1,2-oxazol-5-yl]-3-methylbutanoyl]-4-hydroxy-N-[(1S)-1-[4-(4-methyl-1,3-thiazol-5-yl)phenyl]ethyl]pyrrolidine-2-carboxamide] | 80 to 100% | < 600 nM | > 3000 nM | 
